Values of other authors, collected in patent publication US20070104792A1, “Nanoparticulate tadalafil formulations” (Elan Pharma International, Limited, priority 2005, published 2007).

Conditions: conventional crystalline solid

In the case of CN1CC(=O)N2[C@H](c3ccc4c(c3)OCO4)c3[nH]c4ccccc4c3C[C@@H]2C1=O [tadalafil, pyrazino[1′,2′:1,6]pyrido[3,4-b]indole-1,4-dione, 6-(1,3-benzodioxol-5-yl)-2,3,6,7,12,12a-hexahydro-2-methyl-, (6R,12aR)], the Solubility in ethanol (ethanol) is given as “very slightly soluble in ethanol” and the Solubility in water (water) is given as “practically insoluble in water”.
